Source: patent US11840686B2, “Modulation of prekallikrein (PKK) expression” (Ionis Pharmaceuticals, Inc., priority 2013, dated 2023)
Strand notation (5' to 3'): a small letter for the sugar, then the base; units joined by * are phosphorothioate-linked, units joined directly phosphodiester-linked; [ ] holds rarer units or linkages, { } end groups; capitals alone tell only the bases. e = 2'-O-(2-methoxyethyl) (MOE); [5mC] = 5-methylcytosine; d = 2'-deoxy (DNA)

system: human PKK mRNA; experiment: Antisense inhibition of human PKK mRNA in HepaRG cells, 5,000 nM (Example 2); type: cell-based; details: Table 7; HepaRG cells, electroporation with 5,000 nM antisense oligonucleotide, approx. 24 hours; PKK mRNA by RT-PCR (RTS3454), relative to untreated control cells
Summary of the method: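 Percent inhibition of PKK mRNA is reported relative to untreated cells, after adjustment for total RNA by RIBOGREEN. Gapmers of 16–20 nucleosides with 2′-MOE wings were delivered at 5,000 nM by electroporation into HepaRG cells and left for roughly 24 hours before RNA isolation.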

Substance | % inhibition [%]
547401 (eG*eA*eA*eT*eG*dG*d[5mC]*dA*dG*dG*dG*dT*dT*d[5mC]*dA*eG*eG*eT*eA*eA; antisense) [compound 547401] | 22
547402 (eT*eT*eT*eA*eG*dA*dA*dT*dG*dG*d[5mC]*dA*dG*dG*dG*eT*eT*e[5mC]*eA*eG; antisense) [compound 547402] | 59
547403 (eA*eT*eT*eT*eT*dA*dG*dA*dA*dT*dG*dG*d[5mC]*dA*dG*eG*eG*eT*eT*e[5mC]; antisense) [compound 547403] | 10
547404 (eA*eG*eT*e[5mC]*eA*dA*d[5mC]*dT*d[5mC]*d[5mC]*d[5mC]*dG*dG*dG*dT*eA*eA*eA*eT*eT; antisense) [compound 547404] | 64
547405 (e[5mC]*eA*eA*eA*eG*dT*d[5mC]*dA*dA*d[5mC]*dT*d[5mC]*d[5mC]*d[5mC]*dG*eG*eG*eT*eA*eA; antisense) [compound 547405] | 47
547406 (e[5mC]*eT*e[5mC]*e[5mC]*eT*d[5mC]*d[5mC]*dA*dA*dA*dG*dT*d[5mC]*dA*dA*e[5mC]*eT*e[5mC]*e[5mC]*e[5mC]; antisense) [compound 547406] | 81
547407 (eT*eT*e[5mC]*eA*eA*dT*dT*d[5mC]*dT*dT*d[5mC]*dT*d[5mC]*d[5mC]*dT*e[5mC]*e[5mC]*eA*eA*eA; antisense) [compound 547407] | 59
547408 (eT*e[5mC]*eA*e[5mC]*eA*dT*dT*d[5mC]*dA*dA*dT*dT*d[5mC]*dT*dT*e[5mC]*eT*e[5mC]*e[5mC]*eT; antisense) [compound 547408] | 84
547409 (eA*eG*eT*e[5mC]*eA*d[5mC]*dA*dT*dT*d[5mC]*dA*dA*dT*dT*d[5mC]*eT*eT*e[5mC]*eT*e[5mC]; antisense) [compound 547409] | 67

same assay, conditions: Table 8; HepaRG cells, electroporation with 5,000 nM antisense oligonucleotide, approx. 24 hours; PKK mRNA by RT-PCR (RTS3454), relative to untreated control cells

Substance | % inhibition [%]
547410 (e[5mC]*eA*eA*eG*eT*d[5mC]*dT*d[5mC]*dT*dT*dG*dG*d[5mC]*dA*dA*eA*e[5mC]*eA*eT*eT; antisense) [compound 547410] | 88
547411 (e[5mC]*eA*eT*e[5mC]*eT*dT*dT*dG*dT*dG*d[5mC]*dA*dA*dG*dT*e[5mC]*eT*e[5mC]*eT*eT; antisense) [compound 547411] | 79
547412 (eA*eT*e[5mC]*eA*eT*d[5mC]*dT*dT*dT*dG*dT*dG*d[5mC]*dA*dA*eG*eT*e[5mC]*eT*e[5mC]; antisense) [compound 547412] | 73
547414 (eT*eG*eG*eG*eA*dG*dT*dA*dA*dA*dG*dA*dA*dT*dA*eA*eG*eT*eG*eA; antisense) [compound 547414] | 76
547415 (eT*e[5mC]*eT*eG*eG*dG*dA*dG*dT*dA*dA*dA*dG*dA*dA*eT*eA*eA*eG*eT; antisense) [compound 547415] | 71
547416 (e[5mC]*eT*eT*eA*e[5mC]*dA*dG*dT*d[5mC]*dT*dT*d[5mC]*dT*dG*dG*eG*eA*eG*eT*eA; antisense) [compound 547416] | 79
547417 (eT*e[5mC]*e[5mC]*eT*eT*dA*d[5mC]*dA*dG*dT*d[5mC]*dT*dT*d[5mC]*dT*eG*eG*eG*eA*eG; antisense) [compound 547417] | 68
547418 (e[5mC]*eA*e[5mC]*eT*eT*dA*d[5mC]*dA*d[5mC]*dT*dT*d[5mC]*dT*d[5mC]*dT*eT*e[5mC]*e[5mC]*eT*eT; antisense) [compound 547418] | 0
547419 (e[5mC]*eT*eT*eA*eA*dG*dA*dA*dA*d[5mC]*dA*d[5mC]*dT*dT*dA*e[5mC]*eA*e[5mC]*eT*eT; antisense) [compound 547419] | 51
547420 (e[5mC]*e[5mC]*eA*eT*eA*dG*dA*dT*dA*dA*dT*d[5mC]*dT*dT*dA*eA*eG*eA*eA*eA; antisense) [compound 547420] | 8
547421 (e[5mC]*eA*eT*e[5mC]*e[5mC]*dA*dT*dA*dG*dA*dT*dA*dA*dT*d[5mC]*eT*eT*eA*eA*eG; antisense) [compound 547421] | 69
547422 (eA*e[5mC]*e[5mC]*eA*eT*d[5mC]*d[5mC]*dA*dT*dA*dG*dA*dT*dA*dA*eT*e[5mC]*eT*eT*eA; antisense) [compound 547422] | 70
547424 (eA*eG*eA*eG*e[5mC]*dT*d[5mC]*d[5mC]*d[5mC]*dT*dT*dG*dT*dG*dT*e[5mC]*e[5mC]*e[5mC]*eA*eT; antisense) [compound 547424] | 90
547425 (eT*eA*eA*e[5mC]*e[5mC]*dA*dG*dA*dG*d[5mC]*dT*d[5mC]*d[5mC]*d[5mC]*dT*eT*eG*eT*eG*eT; antisense) [compound 547425] | 85
547427 (eA*eA*eG*eA*eG*dT*dA*dA*d[5mC]*d[5mC]*dA*dG*dA*dG*d[5mC]*eT*e[5mC]*e[5mC]*e[5mC]*eT; antisense) [compound 547427] | 79
547428 (eT*e[5mC]*eA*eA*eA*dG*dA*dG*dT*dA*dA*d[5mC]*d[5mC]*dA*dG*eA*eG*e[5mC]*eT*e[5mC]; antisense) [compound 547428] | 78
547429 (eA*eA*eT*e[5mC]*eT*d[5mC]*dA*dA*dA*dG*dA*dG*dT*dA*dA*e[5mC]*e[5mC]*eA*eG*eA; antisense) [compound 547429] | 81
547430 (e[5mC]*eA*eA*eT*e[5mC]*dT*d[5mC]*dA*dA*dA*dG*dA*dG*dT*dA*eA*e[5mC]*e[5mC]*eA*eG; antisense) [compound 547430] | 70
547431 (e[5mC]*eA*eG*eT*eG*dT*dT*dA*d[5mC]*dA*d[5mC]*dA*dA*dT*d[5mC]*eT*e[5mC]*eA*eA*eA; antisense) [compound 547431] | 67
547432 (e[5mC]*e[5mC]*e[5mC]*eA*eG*dT*dG*dT*dT*dA*d[5mC]*dA*d[5mC]*dA*dA*eT*e[5mC]*eT*e[5mC]*eA; antisense) [compound 547432] | 90
547433 (eG*eT*e[5mC]*e[5mC]*e[5mC]*d[5mC]*dA*dG*dT*dG*dT*dT*dA*d[5mC]*dA*e[5mC]*eA*eA*eT*e[5mC]; antisense) [compound 547433] | 63
547434 (eA*eG*eA*eG*eT*dT*dT*dG*dT*dT*d[5mC]*d[5mC]*dT*d[5mC]*d[5mC]*eA*eA*e[5mC]*eA*eA; antisense) [compound 547434] | 54
547435 (antisense e[5mC]*eA*eA*eG*eA*dA*dG*dA*dG*dT*dT*dT*dG*dT*dT*e[5mC]*e[5mC]*eT*e[5mC]*e[5mC]) [compound 547435] | 85
547436 (antisense e[5mC]*eT*e[5mC]*e[5mC]*e[5mC]*d[5mC]*dA*dA*dG*dA*dA*dG*dA*dG*dT*eT*eT*eG*eT*eT) [compound 547436] | 0
547437 (antisense e[5mC]*eT*e[5mC]*eT*e[5mC]*d[5mC]*d[5mC]*d[5mC]*dA*dA*dG*dA*dA*dG*dA*eG*eT*eT*eT*eG) [compound 547437] | 50
547438 (antisense eG*eG*eG*e[5mC]*e[5mC]*dA*d[5mC]*dT*d[5mC]*dT*d[5mC]*d[5mC]*d[5mC]*d[5mC]*dA*eA*eG*eA*eA*eG) [compound 547438] | 82
